Measured values as given in patent US8288377B2, “Inhibitors of the interaction between MDM2 and p53” (Janssen Pharmaceutica N.V., priority 2007, dated 2012).

Columns and labels:
[1] = system: A2780 ovarian cancer cells; assay: Proliferation assay (Alamar Blue); assay type: cell-based; details: Homo sapiens, 96 h, 4-day incubation, read-out: pIC50 (negative log value of the IC50-value) (converted)
Experimental: Cellular activity of the compounds of formula (I) was determined on A2780 tumour cells using a colorimetric assay for cell toxicity or survival (see example C.2).
The human A2780 ovarian cancer cells were a kind gift from Dr. T. C. Hamilton (Fox Chase Cancer Centre, Pennsylvania, U.S.A.). The cells were cultured in RPMI 1640 medium supplemented with 2 mM L-Glutamine, 50 μg/ml gentamicin and 10% fetal calf serum.
Resazurin was purchased from Aldrich (Prod. No. 199303). Potassium ferrocyanide, potassium ferricyanide, KH2PO4 and K2HPO4 were purchased from Sigma (Prod. Nos. P9387, P8131, P5655 and P8281, respectively).
Potassium Phosphate Buffer 0.1 M (PPB) was made as follows: 2.72 gram KH2PO4 and 13.86 gram K2HPO4 were dissolved in 500 ml milli-Q H2O, the pH was adjusted to pH 7.4 and the volume was brought to 1 liter with milli-Q H2O; the buffer was filter sterilised and stored at room temperature. Resazurin stock solution (PPB-A) was prepared fresh by dissolving 45 mg resazurin in 15 ml PBS. 30 mM potassium ferricyanide (PPB-B) was prepared by dissolving 0.987 gram potassium ferricyanide in 100 ml PPB. 30 mM potassium ferrocyanide (PPB-C) was prepared by dissolving 1.266 gram potassium ferrocyanide in 100 ml PPB.
Mixture of PPB-A, PPB-B and PPB-C was prepared by mixing equal volumes of the respective solutions. Resazurin work solution (herein termed “Alamar Blue” solution) was prepared by diluting said mixture 20× (vol/vol) in PPB and filter sterilising; the Alamar Blue solution could be kept at 4° C. for a maximum of 2 weeks.
For experiments in 384 wells plates the cells were seeded at a density of 5×10^3 cells/ml in Falcon 384-well culture plates (Life Technologies, Merelbeke, Belgium), black with clear bottom, in 45 μl culture medium. Cells were allowed to adhere to plastic for 24 hr. The tested compound was pre-diluted (1/50 in culture medium) and 5 μl pre-diluted compound was added to the wells. Following 4-day incubation, 10 μl of the Alamar Blue solution was added to each well and the cells were further incubated for 5 hrs (A2780) at 37° C. The fluorescence intensity was measured for each well with a Fluorescence plate reader (Fluorskan, Labsystems, 540 nm excitation and 590 nm emission)
The antiproliferative activity was calculated as percentage of remaining viable cells in treated versus control (untreated cells) conditions. Within an experiment, the result for each experimental condition is the mean of 3 replicate wells. When appropriate, the experiments were repeated to establish full concentration-response curves. When appropriate, IC50-values (concentration of the drug, needed to reduce cell growth to 50% of the control) were computed using probit analysis for graded data (Finney, D. J., Probit Analyses, 2nd Ed. Chapter 10, Graded Responses, Cambridge University Press, Cambridge 1962). Herein the effects of test compounds are expressed as pIC50 (the negative log value of the IC50-value) (see Table 4).

p53 in A2780 cells = assay: p53 ELISA (preservation of p53 in A2780 cells); assay type: cell-based; details: Homo sapiens, treated with compound for 16 hours, read-out: p53-elisa LAD (lowest dose giving at least 140% of the value for p53 present in the control)
Experimental: The capacity of the compounds to preserve p53 in A2780 cells was measured with the p53 enzyme linked immunosorbent assay (ELISA). The p53 assay is a “sandwich” enzyme immunoassay employing two polyclonal antibodies. A polyclonal antibody, specific for the p53 protein, has been immobilized onto the surface of the plastic wells. Any p53 present in the sample to be assayed will bind to the capture antibody. The biotinylated detector polyclonal antibody also recognizes p53 protein, and will bind to any p53, which has been retained by the capture antibody. The detector antibody, in turn, is bound by horseradish peroxidase-conjugated streptavidin. The horseradish peroxidase catalyses the conversion of the chromogenic substrate o-phenylene diamine, the intensity of which is proportional to the amount of p53 protein bound to the plate. The coloured reaction product is quantified using a spectrophotometer. Quantitation is achieved by the construction of a standard curve using known concentrations of purified recombinant HIS tagged p53 protein (see example C.1).
A2780 cells (ATCC) were cultivated in RPMI 1640 supplemented with 10% fetal calf serum (FCS), 2 mM L-glutamine and gentamycin at 37° C. in a humidified incubator with 5% CO2.
A2780 cells were seeded at 20.000 cells per well in a 96 well plate, cultured for 24 hours and treated with compound for 16 hours at 37° C. in a humidified incubator. After incubation, the cells were washed once with phosphate-buffered saline and 30 μl, per well, low salt RIPA buffer (20 mM tris, pH7.0, 0.5 mM EDTA, 1% Nonidet P40, 0.5% DOC, 0.05% SDS, 1 mM PMSF, 1 μg/ml aprotinin and 0.5 μ/ml leupeptin) was added. Plates were placed on ice for 30 minutes to complete the lysis. p53 protein was detected in de lysates by using the sandwich ELISA, described below.
High binding polystyrene EIA/RIA 96 well plates (Costar 9018) were coated with the capture antibody pAb1801 (Abcam ab28-100) at a concentration of 1 μg/ml in coating buffer (0.1 M NaHCO3 pH8.2), 50 μl per well. The antibody was allowed to adhere overnight at 4° C. Coated plates were washed once with phosphate-buffered saline (PBS)/0.05% Tween 20 and 300 μl of blocking buffer (PBS, 1% bovine serum albumins (BSA)) was added, for an incubation period of 2 hours at room temperature. Dilutions of purified recombinant HIS tagged p53 protein, ranging from 3-200 ng/ml, were made in blocking buffer and used as standards.
Plates were washed twice with PBS/0.05% Tween 20 and blocking buffer or standards were added at 80 μl/well. To the standards, 20 μl of lysis buffer was added. The samples were added to the other wells at 20 μl lysate/well. After an overnight incubation at 4° C., plates were washed twice with PBS/0.05% Tween 20. Aliquots of 100 μl secondary polyclonal antibody p53(FL-393) (Tebubio, sc-6243) at a concentration of 1 μg/ml in blocking buffer were added to each well and allowed to adhere for 2 hours at room temperature. Plates were washed three times with PBS/0.05% Tween 20. Detection antibody anti-rabbit HRP (sc-2004, Tebubio) at 0.04 μg/ml in PBS/1% BSA was added and incubated for 1 hour at room temperature. Plates were washed three times with PBS/0.05% Tween 20 and 100 μl of substrate buffer was added (substrate buffer was prepared shortly before use by adding 1 tablet of 10 mg o-phenylene diamine (OPD) from Sigma and 125 μl 3% H2O2 to 25 ml OPD buffer: 35 mM citric acid, 66 mM Na2HPO4, pH5.6). After 5 to 10 minutes, colour reaction was stopped by adding 50 μl stop buffer (1 M H2SO4) per well. The absorbance at dual wavelengths of 490/655 nm was measured using a Biorad micro plate reader and the results were then analyzed.
For each experiment, controls (containing no drug) and a blank incubation (containing no cells or drugs) were run in parallel. The blank value was subtracted from all control and sample values. For each sample, the value of p53 (in absorbance units) was expressed as the percentage of the value for p53 present in the control. […]

SMILES | IC50 [1] | minimal effective concentration (p53 in A2780 cells)
CC(C)N1CCC2(CC1)CN(CCc1c[nH]c3ccccc13)c1ccc(Nc3ccncc3)cc1O2 [Compound 8] | 1.26 µM | > 10 µM
OCc1cc(Nc2ccc3c(c2)OC2(CCOCC2)CN3CCc2c[nH]c3ccccc23)ccn1 [Compound 45] | 6.31 µM | > 10 µM
Cc1cccc2c(CCN3CC(C)Oc4cc(Nc5ccnc6c5CCC6O)ccc43)c[nH]c12 (centres unmarked) [Compound 42] | 4.79 µM | > 10 µM
OC1CCc2c(Nc3cc(F)c4c(c3)OCCN4CCc3c[nH]c4ccccc34)ccnc21 (centres unmarked) [Compound 13] | 4.47 µM | 1 µM
OCc1cc(Nc2ccc3c(c2)OC2(CCCC2)CN3CCc2c[nH]c3ccccc23)ccn1 [Compound 40] | ~4.79 µM | > 10 µM
Cc1cccc2c(CCN3CCOc4cc(Nc5ccncc5)ccc43)c[nH]c12 [Compound 48] | 3.47 µM | > 10 µM
c1ccc2c(CCN3CCOc4cc(Nc5ccncc5)ccc43)c[nH]c2c1 [Compound 3] | > 10 µM | > 10 µM

The next lines start with results.

IC50 [1] | SMILES | minimal effective concentration (p53 in A2780 cells)
3.31 µM | CN1CCN(CCc2c[nH]c3ccccc23)c2ccc(Nc3ccncc3)cc21 [Compound 76] | 10 µM
5.25 µM | OCc1cc(Nc2ccc3c(c2)OCCN3CCc2coc3ccccc23)ccn1 [Compound 68] | > 10 µM
4.68 µM | Cc1cccc2c(CCN3CCOc4cc(Nc5ccnc(CO)c5)ccc43)c[nH]c12 [Compound 72] | > 10 µM
~5.25 µM | CN1CCN(CCc2c[nH]c3ccccc23)c2ccc(Nc3ccnc4c3CCC4O)cc21 (centres unmarked) [Compound 75] | > 10 µM
1.41 µM | OCc1cc(Nc2ccc3c(c2)CCCN3CCc2c[nH]c3ccccc23)ccn1 [Compound 66] | 3 µM
5.37 µM | CC1(C)CN(CCc2c[nH]c3ccccc23)c2ccc(Nc3ccncc3)cc2O1 [Compound 62] | > 10 µM
